In brackets after ≈: the same amount, converted by molar mass. Numbered stars: 1 amine (or outer) side, 2 acyl side, 3 side chain; on linkers, the order of the positions; unused ones are H or OH. Square brackets hold non-standard residues; d marks the D form. Peptide text beside a SMILES is read from it. * marks the point of attachment. NH(CH2)9CO = O=C(CCCCCCCCCN[*:1])[*:2]; Lauroyl = CCCCCCCCCCCC(=O)*
Experiments:
[1] = tested on: MRSA 15903; test: microbe, parasite or virus in culture; assay type: cell-based, Staphylococcus aureus
Method: (§1) The fractionary inhibitory (FIC) concentration index for combinations of two antimicrobial agents was calculated as follows: FIC index=FICA+FICB=A/MICA+B/MICB where A and B are the MIC values of agent A and agent B in the combination, MICA and MICB are the MICs of agent A and agent B alone, and FICA and FICB are the FICs of agent A and agent B.
(§2) The FIC indexes were interpreted as follows: less than 0.5 indicates a clear re-sensitizing effect; from 0.5 to 4 indicates a marginal or null re-sensitizing effect; and over 4 indicates antagonism.
Experimental data for FIG. 4 were obtained as follows.

[2] = tested on: ATCC 25923; test: microbe, parasite or virus in culture; assay type: cell-based, Staphylococcus aureus; conditions: ATCC 25923
Method: (§3) MICs were determined by microdilution susceptibility testing in 96-well plates (by Nunc) using inocula of 10^5 bacteria per ml. Cell populations were evaluated by optical density measurements at 620 nm and were calibrated against a set of standards. Hundred (100) μl of a bacterial suspension were added to 100 μl of culture medium (control) or to 100 μl of culture medium containing various polymer concentrations in 2-fold serial dilutions. Inhibition of proliferation was determined by optical density measurements at 620 nm after an incubation period of 24 hours at 37° C.

[3] = tested on: MRSA 15852; assay type: cell-based, Staphylococcus aureus; conditions: 15852
Method: as §1, §2

[4] = tested on: S. aureus ATCC 29213; test: microbe, parasite or virus in culture
Method: In parallel, MIC evolution was compared concomitantly for each new sub-culture, using bacteria harvested from control wells (wells cultured without antimicrobial agent from the previous sub-culture). The relative MIC was calculated for each experiment from the ratio of MIC obtained for subculture “n” to that obtained for first-time exposure.
The relative MIC was determined as the normalized ratio of the MIC obtained for a given subculture to the MIC of the control.
MICs were determined by microdilution susceptibility testing in 96-well plates using inocula of 10^5 bacteria per ml. Cell populations were evaluated by optical density measurements at 600 nm and were calibrated against a set of standards.
In parallel, MIC evolution was compared concomitantly for each new generation, using bacteria harvested from control wells (wells cultured without antimicrobial agent from the previous generation). The relative MIC was calculated for each experiment from the ratio of MIC obtained for subculture “n” to that obtained for first-time exposure. […] MICs were determined by microdilution susceptibility testing in 96-well plates. Cell populations were evaluated by optical density measurements at 600 nm and were calibrated against a set of standards.

[5] = tested on: ATCC 29213; test: microbe, parasite or virus in culture; assay type: cell-based, Staphylococcus aureus; conditions: ATCC 29213
Method: as §3, §1, §2

[6] = tested on: MRSA 15918; test: microbe, parasite or virus in culture; assay type: cell-based, Staphylococcus aureus; conditions: 15918
Method: as §3, §1, §2

[7] = tested on: E. coli 16327; test: microbe, parasite or virus in culture; conditions: 16327
Method: as §3
100 μl of a bacterial suspension were added to 100 μl of culture medium (control) or to 100 μl of culture medium containing various antibiotic and C14(9-ene)KKNC12KNH2 (SEQ ID NO: 5) concentrations in 2-fold serial dilutions. Inhibition of proliferation was determined by optical density measurements at 620 nm after an incubation period of 24 hours at 37° C.

[8] = tested on: Escherichia coli strains; assay type: cell-based; conditions: isogenic pair of E. coli K-12 strains
Method: as §3

[9] = tested on: E. coli K-12 resistant wild type; assay type: cell-based, Escherichia coli; conditions: E. coli K-12 multi-resistant wild type
[10] = tested on: E. coli K-12 efflux knockout mutant; assay type: cell-based, Escherichia coli; conditions: E. coli K-12 strain with decreased levels of efflux pumps
Method: as §3

[11] = tested on: E. coli CI14213; assay type: cell-based, Escherichia coli
Method: as §3

[12] = tested on: various strains of S. aureus, E. coli P. aeruginosa, P. mirabilis and S. maltophila; assay type: cell-based; conditions: strain not stated
Method: Antibacterial activity was determined using various strains of S. aureus, E. coli P. aeruginosa, P. mirabilis and S. maltophila, cultured in LB medium (10 grams/liter trypton, 5 grams/liter yeast extract, 5 grams/liter NaCl, pH 7.4). Bacterial strains include susceptible strains of Staphylococcus aureus, Pseudomonas aeruginosa, Bacillus cereus and Escherichia coli (ATCC, American Type Culture Collection), as well as antibiotic-resistant strains such as oxacillin-resistant Staphylococcus aureus (ORSA) and methicillin-resistant Staphylococcus aureus (MRSA).
as §3

## CCCCCCC=CCCCC(=O)N[C@@H](CCCCN)C(=O)N[C@@H](CCCCN)C(=O)NCCCCCCCCCCCC(=O)N[C@@H](CCCCN)C(N)=O [C12(5-ene)KKNC12KNH2]
[1]; 15903
  MIC: 3.1 to 6.2 µM
  MIC of polymer: 6.2 µM
[1]; MRSA 15903, oxacillin + polymer at optimal concentration 2.1 μM
  fractionary inhibitory concentration (FIC) index: 0.35
[1]; MRSA 15903, with oxacillin
  optimal re-sensitization polymer concentration: 2.1 µM
[2]
  MIC: 3.1 µM (≈ 2.42 µg/mL)
[3]
  MIC: 6.2 µM
[4]; ATCC 29213
  mean polymer's MIC: 4.9 mg/L
[4]; now-resistant ATCC 29213, polymer alone or oxacillin + sub-MIC polymer
  effect on relative MIC of now-resistant strain: decreased the relative MIC
[5]
  MIC: 6.2 µM
[6]
  MIC: 6.2 µM

## CCCCCCCCCCCC(=O)N[C@@H](CCCCN)C(=O)N[C@@H](CCCCN)C(=O)NCCCCCCCCCC(=O)N[C@@H](CCCCN)C(=O)N[C@@H](CCCCN)C(=O)NCCCCCCCCCC(=O)N[C@@H](CCCCN)C(=O)N[C@@H](CCCCN)C(=O)NCCCCCCCCCC(=O)N[C@@H](CCCCN)C(N)=O [C12K(KNC10K)3NH2] (Lauroyl-KK[NH(CH2)9CO]KK[NH(CH2)9CO]KK[NH(CH2)9CO]K-NH2)
[1]; 15903
  MIC of polymer: 6.25 µM
[7]
  MIC of polymer: 3.1 µM

## CCCCCCCCCCCC(=O)N[C@@H](CCCCN)C(=O)NCCCCCCCC(=O)N[C@@H](CCCCN)C(=O)NCCCCCCCC(=O)N[C@@H](CCCCN)C(=O)NCCCCCCCC(=O)N[C@@H](CCCCN)C(=O)NCCCCCCCC(=O)N[C@@H](CCCCN)C(=O)NCCCCCCCC(=O)N[C@@H](CCCCN)C(N)=O [C12K(NC8K)5NH2]
[8]
  MIC of polymer: 3.125 mg/L
[9]
  effect of polymer on antibiotics potency: enhanced antibiotics potency
[10]
  effect of polymer on antibiotic MICs: not altered significantly
[11]; CI14213
  MIC of polymer: 6.2 µM
[11]; E. coli CI14213, polymer well below MIC (up to ⅛ MIC), 24 hours
  re-sensitizing effect of polymer on oxacillin: endowed potency to oxacillin

## CCCCC=CCCCCCCCC(=O)N[C@@H](CCCCN)C(=O)N[C@@H](CCCCN)C(=O)NCCCCCCCCCCCC(=O)N[C@@H](CCCCN)C(N)=O [C14(9-ene)KKNC12KNH2]
[12]
  MIC of polymer per se: 6.2 µM

## CCCCCCC=CCCCCCCCC(=O)N[C@@H](CCCCN)C(=O)N[C@@H](CCCCN)C(=O)NCCCCCCCCCCCC(=O)N[C@@H](CCCCN)C(N)=O [C16(9-ene)KKNC12KNH2]
[12]
  MIC of polymer per se: 6.2 µM

Reference: US20180153995A1, “USE OF ANTIMICROBIAL POLYMERS FOR RE-SENSITIZATION OF MICROORGANISMS UPON EMERGENCE OF RESISTANCE TO ANTI-MICROBIAL AGENTS” (Technion Research & Development Foundation Limited, priority 2008, published 2018)
